Reference: US20210134398A1, “Combinatorial Chemistry Computational System and Enhanced Selection Method” (Southern Methodist University, priority 2019, published 2021)
Entries after “also recorded” stand apart in the source; their conditions may differ. Where two headings read alike, the source gives them in different places.

Key:
[1] = target: P-gp (P-gp over-expressing cell line, DU145TXR) (Homo sapiens, UniProt P08183); assay: Cellular accumulation of experimental compounds by LC-MS/MS with and without tariquidar; conditions: for Transport substrate for P-gp: not told
P-gp (P-gp over-expressing cell line, DU145TXR), sequence (P08183 whole entry): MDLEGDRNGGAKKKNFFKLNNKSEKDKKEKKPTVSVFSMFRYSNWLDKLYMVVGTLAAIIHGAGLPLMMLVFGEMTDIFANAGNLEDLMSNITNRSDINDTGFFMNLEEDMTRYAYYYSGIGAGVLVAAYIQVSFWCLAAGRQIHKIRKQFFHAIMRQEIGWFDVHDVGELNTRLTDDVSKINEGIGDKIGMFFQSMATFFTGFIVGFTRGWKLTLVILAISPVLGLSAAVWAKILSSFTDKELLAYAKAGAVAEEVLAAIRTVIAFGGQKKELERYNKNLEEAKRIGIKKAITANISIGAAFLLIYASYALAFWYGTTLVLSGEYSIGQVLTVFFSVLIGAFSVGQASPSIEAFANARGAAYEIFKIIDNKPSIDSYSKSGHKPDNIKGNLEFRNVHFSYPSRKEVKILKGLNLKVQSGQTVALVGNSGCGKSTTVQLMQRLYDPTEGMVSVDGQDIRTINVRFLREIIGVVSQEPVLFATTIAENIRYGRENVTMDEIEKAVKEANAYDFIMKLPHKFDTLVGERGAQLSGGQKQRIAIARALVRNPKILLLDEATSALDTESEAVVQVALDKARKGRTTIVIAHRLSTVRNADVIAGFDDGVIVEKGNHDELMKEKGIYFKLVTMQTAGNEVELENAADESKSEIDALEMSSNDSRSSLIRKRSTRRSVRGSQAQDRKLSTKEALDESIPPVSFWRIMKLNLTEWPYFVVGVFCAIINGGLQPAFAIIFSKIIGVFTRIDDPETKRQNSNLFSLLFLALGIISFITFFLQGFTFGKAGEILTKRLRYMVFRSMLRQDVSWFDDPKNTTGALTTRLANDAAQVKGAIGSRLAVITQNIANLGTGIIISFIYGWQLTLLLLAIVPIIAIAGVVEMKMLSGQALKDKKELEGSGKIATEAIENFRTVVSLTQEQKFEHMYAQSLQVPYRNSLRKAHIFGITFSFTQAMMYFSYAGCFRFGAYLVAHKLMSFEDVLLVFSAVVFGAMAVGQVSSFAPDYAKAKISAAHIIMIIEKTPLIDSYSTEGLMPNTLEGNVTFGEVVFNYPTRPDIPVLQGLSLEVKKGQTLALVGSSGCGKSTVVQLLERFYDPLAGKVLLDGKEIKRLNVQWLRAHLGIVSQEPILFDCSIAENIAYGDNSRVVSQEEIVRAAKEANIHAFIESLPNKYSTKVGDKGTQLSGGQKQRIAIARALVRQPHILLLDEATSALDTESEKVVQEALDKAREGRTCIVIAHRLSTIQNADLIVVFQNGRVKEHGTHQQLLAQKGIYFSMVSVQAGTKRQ
Experimental: Stimulation of basal ATPase by 29-variants was used as an indicator that a compound may be a P-gp transport substrate. Effects on stimulated P-gp ATPase activity indicated whether a compound directly interfered with ATP usage by the protein (***, p<0.001; **, p<0.01; *, p<0.1; NS, not significant). Quantitative cellular accumulation of 29-variants was performed using LC-MS/MS and is presented as a ratio of the cellular amounts of 29-variants in the presence of P-gp inhibitor, tariquidar, divided by amounts accumulated in its absence. […] Binding of an ATP analog, SL-ATP, to P-gp was used to determine whether ATP binding to P-gp was affected by the 29-variants. Values +/−standard deviations are shown for at least three different P-gp preparations and three independent SL-ATP titration experiments. The values for SL-ATP binding in the presence of 29 were taken directly from Brewer et al. (2014).
Intracellular accumulation of compound 29 variants. Cell accumulation assays for each of the 29 variants were performed as in reference^28 to more directly assess whether the compounds were indeed transport substrates for P-gp.
Cellular Accumulation Assays for Experimental P-gp Inhibitors. Cells used (DU145TXR), cell culturing, cell exposure to compounds, cellular handling and extractions were performed as described in^28. LC-MS/MS methods were performed as described in^71 and as modified in^28.

[2] = system: P-gp overexpressing prostate cancer cell line, DU145TXR; assay: MTT cell viability assay, resensitization to paclitaxel; assay type: cell-based, human; conditions: for Resensitization of DU145TXR to paclitaxel / MDR reversal (in words): 3 to 10 μM inhibitor; for Fold vs PTX (fold increased sensitivity): vs paclitaxel alone; for Fold vs PTX + 29: vs paclitaxel + parental compound 29
Description: The Group 1 ChemGen/docking routine produced variants of P-gp inhibitor 29 resensitize a multidrug resistant, P-gp overexpressing prostate cancer cell line to paclitaxel. The mitochondrial reduction potential of cells is often used as an indicator for cell viability using MTT assays^4. Using these assays it was observed that the five Group 1 derivatives of 29 predicted through the ChemGen/docking routine and synthesized here, 216, 227, 231, 541 and 551, re-sensitized the P-gp overexpressing prostate cancer cell line, DU145TXR^33, to the chemotherapeutic, paclitaxel (FIG. 12, showing results of assays at concentrations of 3 μM, 5 μM, 7 μM, and 10 μM).
Cytotoxicity of the chemotherapeutic, paclitaxel (PTX) to P-gp overexpressing prostate cancer cells, DU145TXR, was determined in the absence and presence of the ChemGen designed 29-variants, 216, 227, 231, 541 and 551. For each experimental compound IC50 values of PTX alone or in the presence of inhibitors, fold improvement of PTX sensitivity in the presence of inhibitor, and fold improvement of PTX sensitivity by variants compared to parental compound 29 are given.
Effects of Group 2 variants on the paclitaxel sensitivity of P-glycoprotein overexpressing prostate cancer cells, DU145TXR. MTT assays were again used to assess the efficacy of the new structural 29-variants on sensitizing the chemotherapy-resistant prostate cancer cell line, DU145TXR, to paclitaxel, at concentrations of 3 μM, 5 μM, 7 μM, and 10 μM as shown in FIG. 15 and Table 4.
MTT cell viability assay. Cells were trypsinized from monolayers and seeded with 3000 cells in 150 μL of complete medium in a 96 well plate. After 24 hours, cells were treated for 48 hours with paclitaxel (Acros Organics, NJ) and/or P-gp inhibitory compounds dissolved in DMSO, or DMSO controls. All additions were diluted into complete medium. After 48 hours of treatment, MTT assays were performed as described^41 using 5 mg/mL of MTT (Acros Organics, NJ) solution prepared in PBS (137 mM NaCl, 2.7 mM KCl, 10 mM Na2HPO4, 1.8 mM KH2PO4, pH 7.4). After 4 hours of incubation with MTT, the media was removed and the formazan crystals were dissolved in 100 μL of DMSO. The absorbance at 570 nm was then measured using a BioTek Cytation 5 imaging multi-mode reader (Bio-Tek, Winooski, Vt.). Percent viability was calculated using DMSO treated cells as representative for 100% viability, according to Equation 1. Background absorbance was determined using MTT and complete medium without cells and subtracted from all the test values. Equation 1:
The results were plotted as the mean with standard deviation (SD) of eight replicates per concentration from at least two independent experiments with n=8. The graphical representations and IC50 values were determined using four parameter variable slope non-linear regression, using the following equation: Y=bottom+(top-bottom)/(1+10^((log IC50−X)*Hill Slope) (GraphPad Prism™, La Jolla Calif., USA, Version 6.05). The reported “fold sensitization” was calculated as follows, per Equation 2: […]

[3] = target: T1, Normal Human MDR1 P-glycoprotein (Homo sapiens, UniProt P08183); assay: ATPase activity assay (basal and verapamil-stimulated), P-gp in nanodiscs; assay type: biochemical; conditions: for Effect on stimulated ATPase / Stimulated ATPase: in the presence of verapamil; for Stimulated ATPase / Basal ATPase: ± standard deviation; for Effect on basal ATPase / Basal ATPase: no added transport substrate
T1 construct: made in house; host or cells: Pichia pastoris (P-gp); E. coli BL21 (DE3) (MSP1E3D1)
T1 sequence (P08183 whole entry): as above
Description: To assess whether the observed discrepancies of compounds stimulating basal P-gp ATPase activity but not being transport substrates of the human pump in the cell culture assessments were due to the fact that these biochemical assays used a cysteineless variant of the mouse MDR3 P-glycoprotein, the experiments were repeated using normal human MDR1 P-gp. In order to stabilize the human protein for the activity assays, the protein was assembled into membrane nanodiscs as described herein.
P-glycoprotein Purification. Cysteine-less MDR3 and the human normal MDR1 P-glycoprotein was recombinantly expressed in the yeast Pichia pastoris essentially as in^45, 46 and used for assaying ATP hydrolysis and ATP binding to the protein in the presence of the 29-variants. Purification of the protein was performed as described^49 with small modifications resulting in highly enriched P-gp in mixed micelles containing dodecyl maltoside (DDM) and lysophosphatidyl choline^26.
Nanodisc assembly. Human P-gp in mixed detergent micelles obtained during protein purification, was reconstituted into nanodiscsas described in references^73, 74 with small modifications. […] The detergent was removed with Bio-Beads™ SM-2 Adsorbent Media (BioRad). Ni-NTA Agarose (Qiagen) chromatography was used to purify P-gp reconstituted nanodiscs using 6 bed volumes of start buffer (20% (v/v) glycerol, 50 mM Tris-CL pH 7.5 at 4° C., 50 mM NaCl), and 5 bed volumes of elution buffer (20% (v/v) glycerol, 50 mM Tris-Cl pH 7.5 at 4° C., 50 mM NaCl, 300 mM imidazole).
ATPase Activity Assays. ATP hydrolysis activity was measured using a coupled enzyme assay^72 as modified in reference^26.

Cellular accumulation: ratio of plus Tariquidar over no Tariquidar ([1]; human)	Effect on stimulated ATPase [3]	Stimulated ATPase [3]	Effect on basal ATPase [3]	Basal ATPase [3]	Structure (SMILES)	Transport substrate for P-gp ([1]; human)	Intracellular accumulation in absence vs presence of tariquidar (in words) [1]	also measured
	inhibitor	59 ± 4 % of DMSO	none	95 ± 3 % of DMSO	Cc1cc(C)c(-c2cc(NC(=O)CSCC(=O)NCc3ccc(F)cc3)n(-c3ccccc3)n2)cc1C [29-286]		more modest, but statistically significant increases	Cellular accumulation: ratio of plus Tariquidar over no Tariquidar [1]: 1.3; Resensitization of DU145TXR to paclitaxel / MDR reversal (in words) ([2]; listed as 286): little effect
1.2	inhibitor	59 ± 6 % of DMSO	none	84 ± 9 % of DMSO	Cc1cc(C)c(-c2cc(NC(=O)CSCC(=O)Nc3ccc4ncsc4c3)n(-c3ccccc3)n2)cc1C [29-255, 2-({[(1,3-benzothiazol-6-yl)carbamoyl]methyl}sulfanyl)-N-[1-phenyl-3-(2,4,5 trimethylphenyl)-1H-pyrazol-5-yl]acetamide]		more modest, but statistically significant increases	Fold vs PTX + 29 ([2]; 3 μM inhibitor): comparable to 238 at 3 μM; Fold vs PTX (fold increased sensitivity) ([2]; 7 μM inhibitor): about a thousand-fold; Resensitization of DU145TXR to paclitaxel / MDR reversal (in words) ([2]; listed as 255): increased paclitaxel toxicities to the greatest extents; also recorded: vastly outperformed compounds 278, 280 and 286; also recorded: reversed MDR
0.9	inhibitor	40 ± 3 % of DMSO	inhibitor	70 ± 4 % of DMSO	Cc1cc(C)c(-c2cc(NC(=O)CSCC(=O)Nc3ccc4ccccc4c3)n(-c3ccccc3)n2)cc1C [29-231, 2-({[(naphthalen-2-yl)carbamoyl]methyl}sulfanyl)-N-[1-phenyl-3-(2,4,5-trimethylphenyl)-1H-pyrazol-5-yl]acetamide]	none of the Group 1 compounds functions as a transport substrate of P-gp	no significant cellular accumulation	Transport substrate for P-gp [1]: no; Fold vs PTX + 29 ([2]; 3 μM inhibitor, listed as 231): 4.1 fold; Fold vs PTX (fold increased sensitivity) ([2]; 3 μM inhibitor): 14 fold; Fold vs PTX + 29 ([2]; 5 μM inhibitor): 4.2 fold; Fold vs PTX (fold increased sensitivity) ([2]; 5 μM inhibitor): 46 fold; Fold vs PTX + 29 ([2]; 7 μM inhibitor): 8.4 fold; Fold vs PTX (fold increased sensitivity) ([2]; 7 μM inhibitor): 303 fold; Fold vs PTX + 29 ([2]; 10 μM inhibitor): 11 fold; Fold vs PTX (fold increased sensitivity) ([2]; 10 μM inhibitor): 1060 fold; Resensitization of DU145TXR to paclitaxel / MDR reversal (in words) ([2]; listed as 231): re-sensitized; also recorded: more effective than 29 at all concentrations tested

Second part, the compound before the results:

Structure (SMILES)	Cellular accumulation: ratio of plus Tariquidar over no Tariquidar ([1]; human)	Effect on stimulated ATPase [3]	Stimulated ATPase [3]	Effect on basal ATPase [3]	Basal ATPase [3]	Transport substrate for P-gp ([1]; human)	Intracellular accumulation in absence vs presence of tariquidar (in words) [1]	also measured
Cc1cc(C)c(-c2cc(NC(=O)CSCC(=O)NC34CC5CC(CC(C5)C3)C4)n(-c3ccccc3)n2)cc1C [29-278, 2-({[(adamantan-1-yl)carbamoyl]methyl}sulfanyl)-N-[1-phenyl-3-(2,4,5-trimethylphenyl)-1H-pyrazol-5-yl]acetamide]	1.0	inhibitor	63 ± 6 % of DMSO	inhibitor	74 ± 6 % of DMSO			Resensitization of DU145TXR to paclitaxel / MDR reversal (in words) ([2]; listed as 278): affected MDR relatively weakly
Cc1cc(C)c(-c2cc(NC(=O)CSc3cccc(NC(=O)c4cncc(Br)c4)c3)n(-c3ccccc3)n2)cc1C [29-551, 5-bromo-N-(3-((2-oxo-2-((1-phenyl-3-(2,4,5-trimethylphenyl)-1H-pyrazol-5-yl)amino)ethyl)thio)phenyl)nicotinamide]	1.1	inhibitor	27 ± 1 % of DMSO	inhibitor	72 ± 9 % of DMSO	none of the Group 1 compounds functions as a transport substrate of P-gp		Fold vs PTX (fold increased sensitivity) ([2]; 3 μM inhibitor): 38 fold; Resensitization of DU145TXR to paclitaxel / MDR reversal (in words) ([2]; listed as 551): re-sensitized; also recorded: more effective than 29 at all concentrations tested
Cc1cc(C)c(-c2cc(NC(=O)CSc3nnc4c(n3)[nH]c3ccccc34)n(-c3ccccc3)n2)cc1C [29-541, 2-((5H-[1,2,4]triazino[5,6-b]indol-3-yl)thio)-N-(1-phenyl-3-(2,4,5-trimethylphenyl)-1H-pyrazol-5-yl)acetamide]	1.0	inhibitor	66 ± 6 % of DMSO	none	87 ± 9 % of DMSO	none of the Group 1 compounds functions as a transport substrate of P-gp		Transport substrate for P-gp [1]: no; Resensitization of DU145TXR to paclitaxel / MDR reversal (in words) ([2]; listed as 541): re-sensitized; also recorded: more effective than 29 at all concentrations tested
Cc1cc(C)c(-c2cc(NC(=O)CSCC(=O)NC(c3ccccc3)c3ccccc3)n(-c3ccccc3)n2)cc1C [29-280, N-(diphenylmethyl)-2-[({[1-phenyl-3-(2,4,5-trimethylphenyl)-1H-pyrazol-5-yl]carbamoyl)methyl}sulfanyl]acetamide]	1.2	inhibitor	54 ± 7 % of DMSO	inhibitor	76 ± 8 % of DMSO			
